This is an account of results in PMC8277899, “A novel RyR1-selective inhibitor prevents and rescues sudden death in mouse models of malignant hyperthermia and heat stroke” (Nature Communications, 2021).

Data set [1] is described as follows: Thermodynamic solubility in solutions for injection. As to conditions: 25 °C; for solubility at 48 h: thermodynamic from solid.
The conditions of data set [2]: cited from earlier work.
The subject of another data set is RyR1 channel. Further details: method as in PMID 31299492. Conditions: HEK293 cell-based assay; read-out: IC50 for inhibiting the RyR1 channel; cited from earlier work.

Structures are written as SMILES. Values after ≈ are worked out from the molar mass of the structure shown. Counter-ions that a name gives are not always drawn.

As a reminder, the solubility is the concentration that dissolves in the medium under given conditions. With `CCCCCCCCn1cc(C(=O)O)c(=O)c2cc3c(cc21)OCO3` [Cpd1 sodium salt], the solubility at 48 h was 351 ± 14 µg/mL in data set [1] (5% glucose aqueous solution, saline or isotonic) and 1360 ± 220 µg/mL in data set [1] (pure water, water). Besides, the Solubility in data set [1] (Normal saline (0.9% NaCl), 48 h) is reported as 849 ± 58 (4) µg/mL.

For `O=C1CN(/N=C/c2ccc(-c3ccc([N+](=O)[O-])cc3)o2)C(O)=N1` [dantrolene], the solubility at 48 h in data set [1] (normal saline (0.9% NaCl), saline or isotonic) was found to be 25.7 ± 2.1 µg/mL (≈ 81.8 µM). The “plasma half-life (t1/2)” value in data set [2] is listed as 12 h. Besides, the plasma half-life in data set [2] (in humans after intravenous injection) is 10 to 12 h.

As a reminder, the IC50 is the concentration at which inhibition is half-maximal. On to `CCn1cc(C(=O)O)c(=O)c2cc3c(cc21)OCO3` [oxolinic acid, reference compound], for which, in the data set on RyR1 channel, the IC50 was 810 nM.
